From patent US4746736A, “Carbapenem antibiotics” (priority 1986, dated 1988)
In brackets after ≈: the same amount, converted by molar mass. Counter-ions that a name gives are not always drawn. Like-named read-outs stand apart in the source and are kept apart here.

Tests used:
P. vulgaris A21559 = assay: In vitro MIC by tube dilution, P. vulgaris A21559; assay type: cell-based; details: P. vulgaris A21559
P. aeruginosa A-9843A [1] = assay: In vitro MIC by tube dilution, P. aeruginosa A-9843A; assay type: cell-based
E. cloacae A-9656 = assay: In vitro MIC by tube dilution, E. cloacae A-9656; assay type: cell-based; details: E. cloacae A-9656
S. aureus A-9537 = assay: In vitro MIC by tube dilution, S. aureus A-9537; assay type: cell-based
S. pneumoniae A-9585 = assay: In vitro MIC by tube dilution, S. pneumoniae A-9585; assay type: cell-based
P. mirabilis A-9900 = assay: In vitro MIC by tube dilution, P. mirabilis A-9900; assay type: cell-based
P. rettgeri A22424 = assay: In vitro MIC by tube dilution, P. rettgeri A22424; assay type: cell-based
E. coli A20341-1 = assay: In vitro MIC by tube dilution, E. coli A20341-1; assay type: cell-based
S. pyogenes A9604 = assay: In vitro MIC by tube dilution, S. pyogenes A9604; assay type: cell-based
E. cloacae A-9659 = assay: In vitro MIC by tube dilution, E. cloacae A-9659; assay type: cell-based
[2] = Blood levels in mice after intramuscular administration; details: 20 mg/kg i.m., mice (compiled table)
Text: Compounds were solubilized in 0.1 M phosphate buffer pH 7.
Values are from a single test; 4 mice used per compound.
Compounds were solubilized in 0.1 M phosphate buffer, pH 7.
Values based on a single test; 4 mice per compound.

P. morganii A15153 = assay: In vitro MIC by tube dilution, P. morganii (M. morganii) A15153; assay type: cell-based
K. pneumoniae A20468 = assay: In vitro MIC by tube dilution, K. pneumoniae A20468; assay type: cell-based
E. coli A15119 = assay: In vitro MIC by tube dilution, E. coli A15119; assay type: cell-based; details: E. coli A15119
S. marcescens A20019 = assay: In vitro MIC by tube dilution, S. marcescens A20019; assay type: cell-based
S. faecalis A20688 = assay: In vitro MIC by tube dilution, S. faecalis A20688; assay type: cell-based; details: S. faecalis A20688
[3] = system: S. aureus A-9606 (Pen-res.); assay: In vitro MIC by tube dilution, S. aureus A-9606 (Pen-res.); assay type: cell-based
K. pneumoniae A-9664 = assay: In vitro MIC by tube dilution, K. pneumoniae A-9664; assay type: cell-based
P. aeruginosa A21213 = assay: In vitro MIC by tube dilution, P. aeruginosa A21213; assay type: cell-based; details: P. aeruginosa A21213
P. aeruginosa A-9843a [4] = assay type: in vivo; details: P. aeruginosa A9843A, mice, i.m.
Experimental: The PD50 (dose in mg/kg required to give protection to 50% of the infected mice) is indicated.
Treatment Schedule: Except for E. coli A15119 and K. pneumoniae A9964,
mice were treated i.m. with drugs 0 and 2 hours postinfection.
5 mice per dose were used for each test
The PD50 (dose in mg/kg) required to give protection to 50% of the infected mice is indicated.

[5] = system: S. aureus A15097 (Meth-res.); assay: In vitro MIC by tube dilution, S. aureus A15097 (Meth-res.); assay type: cell-based; details: Staphylococcus aureus; S. aureus A15097 (Meth-res.), overnight 37° C.
H. influenzae A21518 = assay: In vitro MIC by tube dilution, H. influenzae A21518; assay type: cell-based; details: Haemophilus influenzae
H. influenzae A-9833 = assay: In vitro MIC by tube dilution, H. influenzae A-9833; assay type: cell-based; details: Haemophilus influenzae, A9833
H. influenzae A20178 = assay: In vitro MIC by tube dilution, H. influenzae A20178; assay type: cell-based; details: Haemophilus influenzae
H. influenzae A21522 = assay: In vitro MIC by tube dilution, H. influenzae A21522; assay type: cell-based; details: Haemophilus influenzae

| Molecule | MIC (P. vulgaris A21559) [µg/mL] | MIC (P. aeruginosa A-9843A [1]; P. aeruginosa A-9843a) [µg/mL] | MIC (E. cloacae A-9656) [µg/mL] | MIC (S. aureus A-9537; S. aureus A-9537 +50% serum) [µg/mL] | MIC (S. aureus A-9537; S. aureus A-9537, no serum) [µg/mL] | MIC (S. pneumoniae A-9585; S. pneumoniae A-9585) [µg/mL] | MIC (P. mirabilis A-9900; P. mirabilis A-9900) [µg/mL] | MIC (P. rettgeri A22424; P. rettgeri A22424) [µg/mL] | MIC (E. coli A20341-1) [µg/mL] | MIC (S. pyogenes A9604; S. pyogenes A-9604) [µg/mL] | MIC (E. cloacae A-9659; E. cloacae A-9659) [µg/mL] | AUC [2] [ng·h/mL] | MIC (P. morganii A15153; M. morganii A15153) [µg/mL] | MIC (K. pneumoniae A20468; K. pneumoniae A20468) [µg/mL] | MIC (E. coli A15119) [µg/mL] | MIC (S. marcescens A20019) [µg/mL] | MIC (S. faecalis A20688) [µg/mL] | MIC ([3]; S. aureus A-9606 (Pen-res)) [µg/mL] | MIC (K. pneumoniae A-9664) [µg/mL] | MIC (P. aeruginosa A21213) [µg/mL] | other results |
| --- | --- | --- | --- | --- | --- | --- | --- | --- | --- | --- | --- | --- | --- | --- | --- | --- | --- | --- | --- | --- | --- |
| C[C@@H](O)C1C(=O)N2C(C(=O)[O-])=C(SCc3cn(C)n[n+]3C)CC12 (stereo partly drawn) [Example 15 "C", 3-[4-(N,N-dimethyl-1,2,3-triazolium)methylthio]-6α-[1-(R)-hydroxyethyl]-7-oxo-1-azabicyclo(3.2.0)hept-2-ene-2-carboxylate] | 0.06 (≈ 0.177 µM) | 8 (≈ 23.6 µM) | 0.13 (≈ 0.384 µM) | 0.06 (≈ 0.177 µM) | 0.016 (≈ 0.0473 µM) | 0.0005 (≈ 0.00148 µM) | 0.06 (≈ 0.177 µM) | 0.25 (≈ 0.739 µM) | 0.03 (≈ 0.0887 µM) | 0.0003 (≈ 0.000887 µM) | 0.13 (≈ 0.384 µM) | 7300 | 0.25 (≈ 0.739 µM) | 0.13 (≈ 0.384 µM) | 0.06 (≈ 0.177 µM) | 0.13 (≈ 0.384 µM) | 0.5 (≈ 1.48 µM) | 0.03 (≈ 0.0887 µM) | 0.06 (≈ 0.177 µM) | 0.5 (≈ 1.48 µM) | T1/2 [2]: 10 min |
| 3-[4-(N,N-dimethyl-1,2,3-triazolium)methylthio]-6α-[1-(R)-hydroxyethyl]-7-oxo-1-azabicyclo(3.2.0)hept-2-ene-2-carboxylate [Example 15 "B"] | 0.008 | 2 | 0.03 | 0.016 | 0.004 | 0.0005 | 0.03 | 0.13 | 0.008 | 0.001 | 0.016 | 7400 | 0.06 | 0.016 | 0.008 | 0.016 | 0.5 | 0.008 | 0.03 | 0.13 | Cmax [2]: 15900 ng/mL; PD50/treatment (P. aeruginosa A-9843a [4]): 0.89 mg/kg |
| C[C@@H](O)[C@H]1C(=O)N2C(C(=O)[O-])=C(SCCc3cc[n+](C)cc3)C[C@H]12 [Example 2] | – | – | – | – | – | – | – | – | – | – | – | – | – | – | – | – | – | – | – | – | MIC (P. aeruginosa A-9843A [1]; Pseudomonas aeruginosa, A9843A, P. aeruginosa A-9843A, read-out: MIC): 8 µg/mL (≈ 23 µM); MIC (S. aureus A-9537; Staphylococcus aureus, A9537, S. aureus A-9537 + 50% serum, overnight 37° C., read-out: MIC): 0.016 µg/mL; MIC (S. aureus A-9537; Staphylococcus aureus, A9537, S. aureus A-9537, no serum, overnight 37° C., read-out: MIC): 0.004 µg/mL (≈ 0.0115 µM); MIC (P. mirabilis A-9900; Proteus mirabilis, A9900, P. mirabilis A-9900, read-out: MIC): 0.03 µg/mL (≈ 0.0861 µM); MIC (P. rettgeri A22424; Providencia rettgeri, A22424, P. rettgeri A22424, read-out: MIC): 0.13 µg/mL (≈ 0.373 µM); MIC (E. cloacae A-9659; Enterobacter cloacae, A9659, E. cloacae A9659, read-out: MIC): 0.13 µg/mL (≈ 0.373 µM); MIC (P. morganii A15153; Morganella morganii, A15153, P. morganii A15153, read-out: MIC): 0.06 µg/mL (≈ 0.172 µM); MIC (K. pneumoniae A20468; Klebsiella pneumoniae, A20468, K. pneumoniae A20468, read-out: MIC): 0.13 µg/mL (≈ 0.373 µM); MIC (S. marcescens A20019; Serratia marcescens, read-out: MIC): 0.03 µg/mL (≈ 0.0861 µM); MIC [5]: 8 µg/mL (≈ 23 µM); MIC ([3]; Staphylococcus aureus, S. aureus A-9606 (Pen-res.), overnight 37° C., read-out: MIC): 0.008 µg/mL (≈ 0.023 µM); MIC (K. pneumoniae A-9664; Klebsiella pneumoniae, A9664, read-out: MIC): 0.06 µg/mL (≈ 0.172 µM) |
| CCC[n+]1ccc(CSC2=C(C(=O)[O-])N3C(=O)[C@H]([C@@H](C)O)[C@H]3C2)cc1 [Example 6, 3-(1-Propylpyridine-4-yl-methanethio)-6α-[1-(R)-hydroethyl]-7-oxo-1-azabicyclo(3.2.0)hept-2-ene-2-carboxylate] | – | – | – | – | – | – | – | – | – | – | – | – | – | – | – | – | – | – | – | – | MIC (P. aeruginosa A-9843A [1]; Pseudomonas aeruginosa, A9843A, P. aeruginosa A-9843a, read-out: MIC): 8 µg/mL (≈ 22.1 µM); MIC (S. aureus A-9537; Staphylococcus aureus, A9537, S. aureus A-9537, no serum, read-out: MIC): 0.03 µg/mL (≈ 0.0828 µM); MIC (S. pneumoniae A-9585; Streptococcus pneumoniae, A9585, S. pneumoniae A-9585, read-out: MIC): 0.004 µg/mL (≈ 0.011 µM); MIC (H. influenzae A21518): > 32 µg/mL; MIC (H. influenzae A-9833): > 32 µg/mL; MIC (S. pyogenes A9604; Streptococcus pyogenes, A9604, S. pyogenes A-9604, read-out: MIC): 0.004 µg/mL (≈ 0.011 µM); MIC ([3]; Staphylococcus aureus, S. aureus A-9606 (Pen-res), read-out: MIC): 0.03 µg/mL (≈ 0.0828 µM) |
| C[C@@H](O)[C@H]1C(=O)N2C(C(=O)[O-])=C(SCc3cc[n+](C)cc3)C[C@H]12 [Example 1, 1-Methyl-4-[2-carboxy-6α-[1(R)-hydroxyethyl]-7-oxo-1-azabicyclo[3.2.0]hept-2-en-3-thiomethyl]pyridinium hydroxide inner salt] | – | – | – | – | – | – | – | – | – | – | – | – | – | – | – | – | – | – | – | – | MIC (H. influenzae A20178): 32 µg/mL; MIC (H. influenzae A21522): 8 µg/mL |
